Test results published in patent US20220265706A1, “PHARMACEUTICAL COMPOSITION CONTAINING COMPLEXES OF ALLOFERON AND ZINC” (priority 2019, published 2022).

Assays:
[1] = test system: Herpes Simplex Virus Type 2 (HSV-2) Strain G (ATCC VR-734); assay: Protective action in a model of herpetic infection in mice; assay type: in vivo, White outbred mice; details: HSV-2 vaginal infection, 1.25 mg/kg (Acyclovir 50 mg/kg); for N14, number of animal deaths in a group on the 14th day after infection: 20 mice per group; for N14, number of animal deaths in a group on the 14th day after infection / M, mortality rate: i.p. once a day for 3 days; for M, mortality rate / IP, index of protection: 14 days follow-up; for IP, index of protection: relative to control mortality 60.0%
Experimental: The developed compositions were assessed for their protective action on the basis of a herpetic infection model. The following reference products were used: 1/Allokin-alfa, Lyophilisate for Solution for Subcutaneous Administration, a medicinal product used to treat genital herpes, containing 1 mg of alloferon per ampoule; 2/Acyclovir, a medicinal product used in the conventional herpes therapy.
White outbred mice (females) weighing 16 to 20 g were received from Rappolovo Nursery (Leningrad Oblast) and maintained on a standard diet under controlled vivarium conditions. The animals for the experimental groups were selected on a random basis. The animals were divided into 5 groups of 20 animals each: four experimental groups in which the animals received injections of Composition 1, Composition 2, Allokin-alfa, and Acyclovir, respectively, and one control group in which the animals received injections of 0.9% sodium chloride solution.
The study was made with the use of Herpes Simplex Virus Type 2 (HSV-2) Strain G (ATCC VR-734). The infection was introduced vaginally. Vaginal epithelium was injured with the use of a vaginal smearing scarifier, after which the animals were infected with the virus at a dose of 1.7×10^5TCID50 in the amount of 30 mcL.
Allokin-alfa and Compositions 1 and 2 were administered to the animals intraperitoneally at a dose of 1.25 mg/kg once a day for 3 days after the infection introduction. Acyclovir was administered in accordance with the same scheme at a dose of 50 mg/kg. The control group received injections of 0.9% sodium chloride solution.
The animals were followed up for 14 days. Mortality in the control and experimental groups were recorded on a daily basis. Based on the data so obtained, mortality rates M (the ratio of animal deaths over 14 days to the total number of infected animals in a group) and the index of protection IP (the ratio between the difference of the control and experimental groups' mortality rates and the control group lethality rate) were calculated.

[2] = test system: Interferon Gamma; assay: Interferon gamma (IFN-γ) induction in mouse blood serum, solid phase immunoassay; assay type: in vivo; details: BALB/C mice, subcutaneous single dose 1 mg alloferon/kg; serum 3 hours after administration
Experimental: Furthermore, cytokine induction caused by using both components (alloferon and the zinc salt), where administered to a body separately in time, were determined. Six samples were tested: • 1. Alloferon (Allokin-alfa, Lyophilisate for Solution for Subcutaneous Administration)—a reference product, • 2. Composition 1, • 3. Composition 2, • 4. […] 0.9% sodium chloride solution—control.
(§1) Samples 1, 2, 3, and 5 contained alloferon at the concentration of 1 mg/mL. The alloferon solution in Samples 1 and 5 was produced by dissolving the contents of an Allokin-alfa ampoule (1 mg of alloferon) in 1 mL of 0.9% sodium chloride solution. […] To determine the background content of IFN-γ and IL-18 in the subject animals' blood serum, a 0.9% sodium chloride solution was used.
(§2) The experiments enrolled BALB/C mice, females, weighing 16 to 22 grams, 18 weeks of age, divided into 6 groups of 15 individuals each. The samples were administered subcutaneously in a single dose of 1 mg of alloferon per 1 kg laboratory animal body weight. Sample 5 components were administered separately, one 15 minutes after the other.

[3] = test system: Interleukin 18; assay: Interleukin 18 (IL-18) induction in mouse blood serum; assay type: in vivo; details: BALB/C mice, subcutaneous single dose 1 mg alloferon/kg; serum 36 hours after administration
Experimental: Six samples were tested: • 1. Alloferon (Allokin-alfa, Lyophilisate for Solution for Subcutaneous Administration)—a reference product, • 2. Composition 1, • 3. Composition 2, • 4. […] 0.9% sodium chloride solution—control.
as §1, §2
In case of the control group, the confidence interval was calculated based on measurements of the same sample dilutions. For the experimental groups, the confidence interval was calculated based on three samples from three animals for each measuring point.

In the case of alloferon, the “N14, number of animal deaths in a group on the 14th day after infection” value [1] was 4, the “M, mortality rate” value [1] was 20.0% and the “IP, index of protection” value [1] was 66.7%. The “Interferon Gamma, after 3 hours (mg/mL of blood serum)” value [2] was 95 ± 16 mg/mL of blood serum and the “Interleukin 18, after 36 hours (mg/mL of blood serum)” value [3] was 360 ± 20 mg/mL of blood serum.
With `Nc1nc2c(ncn2COCCO)c(=O)[nH]1` [Acyclovir] the “N14, number of animal deaths in a group on the 14th day after infection” value [1] was 3, the “M, mortality rate” value [1] was 15.0% and the “IP, index of protection” value [1] was 75.0%.
`CC(=O)[O-].CC(=O)[O-].[Zn+2]` [Zinc acetate] was tested, and the “Interferon Gamma, after 3 hours (mg/mL of blood serum)” value [2] was 82 ± 8 mg/mL of blood serum and the “Interleukin 18, after 36 hours (mg/mL of blood serum)” value [3] was 194 ± 12 mg/mL of blood serum.
